Like-named read-outs stand apart in the source and are kept apart here.
Experiments:
[1] = Pharmacokinetic analysis of SYN120 tablets, multiple dose once daily (Example 9); assay type: in vivo, human; details: for Ae % / % Fluctuation / CL renal / half-life: arithmetic mean; for Ae %: urine; for CL renal / Cmax / AUC(0-t) / Tmax / concentration at 14 day / half-life: both sexes, human, oral; for CL renal: plasma and urine, read-out: 0-24 Clr; for Cmax / AUC(0-t) / Tmax / concentration at 14 day / half-life: plasma; for Cmax / AUC(0-t) / concentration at 14 day: geometric mean
Method: PK analysis in a multiple dose study was performed on 28 subjects (10 males and 18 females) on day 1 and on 27 subjects (10 males and 17 females) on day 14 who received SYN120 oral tablets. The dosing interval was once daily, approximately 40 minutes after a standard breakfast, for up to 21 days. The subjects were administered the same dose of SYN120 daily at one of the following doses: 100 mg; 300 mg; and 600 mg. The SYN120 oral tablets used in this study were the 50 mg tablets as described in Example 8.
Plasma samples were prepared from blood samples for PK analysis collected on days 1 and 14 at the following time points: 0, 0.5, 1, 1.5, 2, 3, 4, 6, 8, 12, and 24 hrs postdose. Additional blood samples were taken following administration on Day 14 at 32, 36, 48, 72, and 168 hrs (day 15 through day 21). In addition, on days 4 and 10, predose blood samples were collected, while on day 7, blood samples were collected predose and 4 hrs postdose. […] Mean plasma SYN120 concentrations at Day 1, (FIG. 7A and FIG. 7B), and at Day 14 (FIG. 8A and FIG. 8B) are also provided.

[2] = target: 5-HT6 receptor (Homo sapiens, UniProt P50406); details: cited from earlier work
[3] = target: 5-HT2B receptor (Homo sapiens, UniProt P41595); details: cited from earlier work
[4] = target: T1, 5-HT2C receptor (Homo sapiens, UniProt P28335); details: cited from earlier work
T1 sequence (P28335 33-458): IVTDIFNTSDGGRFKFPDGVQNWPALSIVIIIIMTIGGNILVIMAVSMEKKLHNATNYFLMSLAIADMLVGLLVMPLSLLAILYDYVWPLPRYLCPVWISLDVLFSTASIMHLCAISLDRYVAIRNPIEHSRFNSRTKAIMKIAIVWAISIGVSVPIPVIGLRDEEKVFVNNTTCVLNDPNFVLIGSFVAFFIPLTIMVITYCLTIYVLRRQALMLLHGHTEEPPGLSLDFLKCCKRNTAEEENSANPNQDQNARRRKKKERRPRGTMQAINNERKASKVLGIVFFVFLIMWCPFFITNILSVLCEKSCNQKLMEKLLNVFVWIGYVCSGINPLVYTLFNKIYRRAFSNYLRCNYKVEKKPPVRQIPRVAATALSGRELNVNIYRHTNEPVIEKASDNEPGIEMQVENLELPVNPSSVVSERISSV

Sequence of 5-HT6 receptor (P50406 whole entry): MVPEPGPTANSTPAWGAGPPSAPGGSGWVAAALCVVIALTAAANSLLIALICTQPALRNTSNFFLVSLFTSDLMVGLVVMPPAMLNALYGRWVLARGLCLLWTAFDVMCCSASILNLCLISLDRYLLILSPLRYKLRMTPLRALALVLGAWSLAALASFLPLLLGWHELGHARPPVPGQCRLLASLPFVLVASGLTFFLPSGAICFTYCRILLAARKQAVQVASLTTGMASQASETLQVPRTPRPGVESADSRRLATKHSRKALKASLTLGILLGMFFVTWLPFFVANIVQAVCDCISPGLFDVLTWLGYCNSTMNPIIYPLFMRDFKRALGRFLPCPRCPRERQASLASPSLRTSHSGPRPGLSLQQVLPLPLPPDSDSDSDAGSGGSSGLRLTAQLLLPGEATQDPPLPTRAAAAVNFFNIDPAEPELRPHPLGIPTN
Sequence of 5-HT2B receptor (P41595 whole entry): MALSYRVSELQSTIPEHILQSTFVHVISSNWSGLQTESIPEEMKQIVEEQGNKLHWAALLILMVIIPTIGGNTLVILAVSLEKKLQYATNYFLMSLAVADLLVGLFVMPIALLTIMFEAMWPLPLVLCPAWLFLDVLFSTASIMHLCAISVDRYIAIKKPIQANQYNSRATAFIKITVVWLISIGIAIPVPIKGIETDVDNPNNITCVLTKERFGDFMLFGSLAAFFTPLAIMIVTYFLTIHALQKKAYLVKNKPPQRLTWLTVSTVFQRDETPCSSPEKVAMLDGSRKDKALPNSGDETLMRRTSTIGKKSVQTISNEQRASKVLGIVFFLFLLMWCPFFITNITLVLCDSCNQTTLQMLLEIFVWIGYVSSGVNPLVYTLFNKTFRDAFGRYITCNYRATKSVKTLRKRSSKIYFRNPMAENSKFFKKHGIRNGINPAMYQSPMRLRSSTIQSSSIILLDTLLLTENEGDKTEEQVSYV

NC(=O)NC[C@@H]1CCCc2cc(S(=O)(=O)c3cccc(F)c3)ccc21 [SYN120]
Ae % ([1]; Day 1, 100 mg QD): 0.610% | Ae % ([1]; Day 1, 300 mg QD): 0.857% | Ae % ([1]; Day 1, 600 mg QD): 0.997% | % Fluctuation ([1]; Day 14, 100 mg QD): 177% | Ae % ([1]; Day 14, 100 mg QD): 1.15% | Tlast ([1]; Day 14, 100 mg QD, median): 168 h | % Fluctuation ([1]; Day 14, 300 mg QD): 209% | Ae % ([1]; Day 14, 300 mg QD): 0.988% | Tlast ([1]; Day 14, 300 mg QD, median): 168 h | % Fluctuation ([1]; Day 14, 600 mg QD): 212% | Ae % ([1]; Day 14, 600 mg QD): 0.756% | Tlast ([1]; Day 14, 600 mg QD, median): 168 h | CL renal ([1]; 100 mg, Day 1, 100 mg QD): 1.25 mL/min | CL renal ([1]; 100 mg, Day 14, 100 mg QD): 1.33 mL/min | CL renal ([1]; 300 mg, Day 1, 300 mg QD): 1.33 mL/min | CL renal ([1]; 300 mg, Day 14, 300 mg QD): 1.34 mL/min | CL renal ([1]; 600 mg, Day 1, 600 mg QD): 1.45 mL/min | CL renal ([1]; 600 mg, Day 14, 600 mg QD): 1.31 mL/min | Cmax ([1]; 100 mg, Day 1, 100 mg QD): 813 ng/mL | AUC(0-t) ([1]; 100 mg, Day 1, 100 mg QD, read-out: AUC0-24): 7780 ng·h/mL | AUC(0-t) ([1]; 100 mg, Day 1, 100 mg QD, read-out: AUC0-last): 7780 ng·h/mL | Tmax ([1]; 100 mg, Day 1, 100 mg QD, median, read-out: Tmax): 4 h | Cmax ([1]; 100 mg, Day 14, 100 mg QD): 1240 ng/mL | AUC(0-t) ([1]; 100 mg, Day 14, 100 mg QD, read-out: AUC0-24): 14200 ng·h/mL | AUC(0-t) ([1]; 100 mg, Day 14, 100 mg QD, read-out: AUC0-last): 19200 ng·h/mL | concentration at 14 day ([1]; 100 mg, Day 14, 100 mg QD, read-out: Cmin): 201 ng/mL | concentration at 14 day ([1]; 100 mg, Day 14, 100 mg QD, read-out: Css): 591 ng/mL | Tmax ([1]; 100 mg, Day 14, 100 mg QD, median, read-out: Tmax): 3 h | Cmax ([1]; 300 mg, Day 1, 300 mg QD): 2750 ng/mL | AUC(0-t) ([1]; 300 mg, Day 1, 300 mg QD, read-out: AUC0-24): 29500 ng·h/mL | AUC(0-t) ([1]; 300 mg, Day 1, 300 mg QD, read-out: AUC0-last): 29500 ng·h/mL | Tmax ([1]; 300 mg, Day 1, 300 mg QD, median, read-out: Tmax): 4 h | Cmax ([1]; 300 mg, Day 14, 300 mg QD): 3470 ng/mL | AUC(0-t) ([1]; 300 mg, Day 14, 300 mg QD, read-out: AUC0-24): 36000 ng·h/mL | AUC(0-t) ([1]; 300 mg, Day 14, 300 mg QD, read-out: AUC0-last): 45700 ng·h/mL | concentration at 14 day ([1]; 300 mg, Day 14, 300 mg QD, read-out: Cmin): 357 ng/mL | concentration at 14 day ([1]; 300 mg, Day 14, 300 mg QD, read-out: Css): 1500 ng/mL | Tmax ([1]; 300 mg, Day 14, 300 mg QD, median, read-out: Tmax): 3 h | Cmax ([1]; 600 mg, Day 1, 600 mg QD): 5180 ng/mL | AUC(0-t) ([1]; 600 mg, Day 1, 600 mg QD, read-out: AUC0-24): 59600 ng·h/mL | AUC(0-t) ([1]; 600 mg, Day 1, 600 mg QD, read-out: AUC0-last): 59600 ng·h/mL | Tmax ([1]; 600 mg, Day 1, 600 mg QD, median, read-out: Tmax): 4 h | Cmax ([1]; 600 mg, Day 14, 600 mg QD): 5460 ng/mL | AUC(0-t) ([1]; 600 mg, Day 14, 600 mg QD, read-out: AUC0-24): 56100 ng·h/mL | AUC(0-t) ([1]; 600 mg, Day 14, 600 mg QD, read-out: AUC0-last): 74000 ng·h/mL | concentration at 14 day ([1]; 600 mg, Day 14, 600 mg QD, read-out: Cmin): 520 ng/mL | concentration at 14 day ([1]; 600 mg, Day 14, 600 mg QD, read-out: Css): 2340 ng/mL | Tmax ([1]; 600 mg, Day 14, 600 mg QD, median, read-out: Tmax): 3.51 h | Tmax ([1]; Day 14, across dose groups, read-out: median Tmax): 3 to 3.51 h | Tmax ([1]; Study Day 1, each dose group, read-out: median Tmax): 4 h | half-life ([1]; Day 14, 100 mg QD): 15.4 h | half-life ([1]; Day 14, 300 mg QD): 15.5 h | half-life ([1]; Day 14, 600 mg QD, n = 7): 15 h | pKi [2]: 9.6 | pKi [3]: 7.7 | pKi [4]: 8.1

— US10973784B2, “Compositions and methods for treating Alzheimer's disease and Parkinson's disease” (Biotie Therapies, Inc., priority 2016, dated 2021)
